In patent publication US20220220135A1 (BAR-ILAN UNIVERSITY, priority 2019, published 2022):
Read-outs that look alike come from different tables or passages of the source.

Assays:
Human CD39 (NTPDase1) [1] = biological target: T1, Human CD39 (NTPDase1) (Homo sapiens, UniProt P49961); experiment: Inhibition of human CD39 (NTPDase1), 100 μM ADP as substrate; type: biochemical; conditions: 100 μM ADP as a substrate
T1 sequence (P49961 1-510): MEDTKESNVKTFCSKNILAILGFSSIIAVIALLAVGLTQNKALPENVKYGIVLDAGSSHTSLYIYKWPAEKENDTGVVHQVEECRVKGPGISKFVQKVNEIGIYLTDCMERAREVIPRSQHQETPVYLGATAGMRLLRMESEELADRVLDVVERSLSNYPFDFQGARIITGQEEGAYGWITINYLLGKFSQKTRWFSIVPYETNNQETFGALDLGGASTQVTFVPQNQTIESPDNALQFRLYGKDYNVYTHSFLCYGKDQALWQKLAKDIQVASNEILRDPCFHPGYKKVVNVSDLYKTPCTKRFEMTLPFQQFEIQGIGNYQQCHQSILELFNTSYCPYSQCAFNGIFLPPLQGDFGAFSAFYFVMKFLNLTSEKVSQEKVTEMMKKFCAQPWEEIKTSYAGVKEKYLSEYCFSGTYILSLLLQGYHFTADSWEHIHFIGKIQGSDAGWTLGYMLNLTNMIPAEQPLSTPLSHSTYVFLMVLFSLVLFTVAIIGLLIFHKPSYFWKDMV

Human CD73 = biological target: T2, Human CD73 (Homo sapiens, UniProt P21589); conditions: literature value; cited from earlier work
T2 sequence (P21589 27-549): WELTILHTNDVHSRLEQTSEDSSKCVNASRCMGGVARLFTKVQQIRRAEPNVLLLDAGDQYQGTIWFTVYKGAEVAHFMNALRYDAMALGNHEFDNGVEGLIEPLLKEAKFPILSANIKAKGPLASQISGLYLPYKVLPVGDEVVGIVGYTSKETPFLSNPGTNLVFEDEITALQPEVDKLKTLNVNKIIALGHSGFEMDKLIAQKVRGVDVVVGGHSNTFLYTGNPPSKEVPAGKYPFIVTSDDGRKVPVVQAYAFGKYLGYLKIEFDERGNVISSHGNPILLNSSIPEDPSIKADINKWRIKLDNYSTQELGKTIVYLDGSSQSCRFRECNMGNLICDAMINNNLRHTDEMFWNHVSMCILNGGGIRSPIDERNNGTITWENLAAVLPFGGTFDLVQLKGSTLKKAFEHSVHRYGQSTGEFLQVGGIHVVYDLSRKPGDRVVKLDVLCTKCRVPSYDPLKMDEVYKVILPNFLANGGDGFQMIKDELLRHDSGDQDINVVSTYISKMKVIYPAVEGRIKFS

human NPP3 = biological target: T3, human NPP3 (Homo sapiens, UniProt O14638); experiment: Inhibition of human NPP3, 100 μM p-Nph-5′-TMP as substrate (Tables 5, 7); type: biochemical; conditions: 100 μM p-Nph-5′-TMP as a substrate
T3 sequence (O14638 1-875): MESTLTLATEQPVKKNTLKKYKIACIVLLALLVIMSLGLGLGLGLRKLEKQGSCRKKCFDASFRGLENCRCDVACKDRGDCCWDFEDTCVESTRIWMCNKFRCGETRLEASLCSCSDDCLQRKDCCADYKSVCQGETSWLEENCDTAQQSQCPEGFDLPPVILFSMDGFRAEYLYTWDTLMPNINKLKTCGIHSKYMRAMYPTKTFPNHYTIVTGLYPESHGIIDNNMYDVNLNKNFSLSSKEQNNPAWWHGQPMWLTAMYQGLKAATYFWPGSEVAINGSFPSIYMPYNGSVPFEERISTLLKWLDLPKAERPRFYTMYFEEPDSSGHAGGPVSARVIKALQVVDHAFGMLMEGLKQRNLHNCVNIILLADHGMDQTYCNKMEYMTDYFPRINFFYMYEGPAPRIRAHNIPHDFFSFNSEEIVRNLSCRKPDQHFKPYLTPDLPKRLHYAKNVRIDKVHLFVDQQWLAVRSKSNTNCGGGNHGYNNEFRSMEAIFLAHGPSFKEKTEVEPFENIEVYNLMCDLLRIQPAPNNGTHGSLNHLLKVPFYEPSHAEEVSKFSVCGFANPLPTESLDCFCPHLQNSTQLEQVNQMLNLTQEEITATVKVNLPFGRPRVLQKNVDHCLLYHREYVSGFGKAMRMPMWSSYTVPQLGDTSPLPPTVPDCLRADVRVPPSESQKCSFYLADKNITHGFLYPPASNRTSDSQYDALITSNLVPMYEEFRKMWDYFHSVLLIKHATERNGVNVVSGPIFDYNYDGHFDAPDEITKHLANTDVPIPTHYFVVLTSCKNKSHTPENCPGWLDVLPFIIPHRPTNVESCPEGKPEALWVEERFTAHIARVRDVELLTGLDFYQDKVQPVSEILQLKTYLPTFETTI

NPP1 [2] = biological target: T4, NPP1 (Homo sapiens, UniProt P22413); conditions: literature value; cited from earlier work
T4 sequence (P22413 1-925): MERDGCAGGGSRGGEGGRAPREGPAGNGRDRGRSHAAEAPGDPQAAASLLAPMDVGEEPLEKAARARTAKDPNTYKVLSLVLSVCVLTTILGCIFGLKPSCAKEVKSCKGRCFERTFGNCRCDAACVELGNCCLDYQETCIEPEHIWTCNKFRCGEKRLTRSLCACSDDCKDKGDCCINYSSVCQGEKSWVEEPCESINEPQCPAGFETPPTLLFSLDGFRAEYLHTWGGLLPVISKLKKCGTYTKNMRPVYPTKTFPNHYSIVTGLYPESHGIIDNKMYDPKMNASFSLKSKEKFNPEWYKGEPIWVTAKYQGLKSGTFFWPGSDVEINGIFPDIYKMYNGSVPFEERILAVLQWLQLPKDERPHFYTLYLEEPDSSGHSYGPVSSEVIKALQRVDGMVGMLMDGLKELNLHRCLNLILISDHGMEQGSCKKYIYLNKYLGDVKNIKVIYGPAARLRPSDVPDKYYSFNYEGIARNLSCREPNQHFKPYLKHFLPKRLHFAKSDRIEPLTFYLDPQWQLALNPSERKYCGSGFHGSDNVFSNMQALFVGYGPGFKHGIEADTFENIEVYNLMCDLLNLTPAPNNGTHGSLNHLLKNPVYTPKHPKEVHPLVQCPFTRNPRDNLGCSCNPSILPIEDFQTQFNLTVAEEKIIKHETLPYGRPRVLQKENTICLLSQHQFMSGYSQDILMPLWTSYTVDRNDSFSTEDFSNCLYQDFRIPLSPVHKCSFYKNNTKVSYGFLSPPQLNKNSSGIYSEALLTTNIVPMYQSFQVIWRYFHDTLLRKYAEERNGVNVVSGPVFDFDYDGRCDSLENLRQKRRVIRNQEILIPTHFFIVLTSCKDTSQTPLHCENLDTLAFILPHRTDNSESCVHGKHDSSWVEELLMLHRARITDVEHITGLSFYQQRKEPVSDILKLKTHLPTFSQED

NPP1 [3] = biological target: T4, NPP1; experiment: Inhibition of human NPP1, 100 μM p-Nph-5′-TMP as substrate (Tables 5, 6); conditions: for inhibition at 10 µM: read-out: % inhibition ± SEM at 10 μM, human NPP1
NPP1 [4] = biological target: T4, NPP1; experiment: Inhibition of human NPP1, 100 μM ATP as substrate (FIG. 9, Table 6); type: biochemical; conditions: for inhibition at 10 µM: n = 3, read-out: % inhibition ± SEM at 10 μM, human NPP1
Method: Each experiment was performed in triplicates;

human P2Y4R = biological target: T5, human P2Y4R (Homo sapiens, UniProt P51582); experiment: Calcium mobilization in 1321N1 astrocytoma cells expressing human P2Y4R; type: cell-based
T5 construct: expressed in transfected cells; host or cells: 1321N1 astrocytoma cells
Method: (§1) Given the structural resemblance of 106-109 to the natural ligands of P2Y receptors, adenine and uracil nucleotides as natural substrates, were assessed for agonist potency on the human P2Y1, P2Y2, P2Y4, and P2Y6 receptor. To evaluate NPP1 selectivity of analogs 106-109, they were tested for their ability to activate of the uridine-nucleotide sensitive human recombinant P2Y1,2,4,6-receptors. The agonist potencies of this series of nucleotide analogues on the Gq protein-coupled human P2Y1R, P2Y2R, P2Y4R, and P2Y6R was determined by assessing its ability to induce calcium mobilization in stably transfected 1321N1 astrocytoma cells (Table 8). The nucleotide analogues were found in calcium mobilization assays to activate the P2Y2R with mid-micromolar potency.

human P2Y1R = biological target: T6, human P2Y1R (Homo sapiens, UniProt P47900); experiment: Calcium mobilization in 1321N1 astrocytoma cells expressing human P2Y1R; type: cell-based
T6 construct: expressed in transfected cells; host or cells: 1321N1 astrocytoma cells
Method: as §1

P2Y6R = P2Y6R (Homo sapiens, UniProt Q15077); experiment: Calcium mobilization in 1321N1 astrocytoma cells expressing human P2Y6R; type: cell-based; set-up: expressed in transfected cells; host or cells: 1321N1 astrocytoma cells (stably transfected)
Method: as §1

human P2Y2R = biological target: T7, human P2Y2R (Homo sapiens, UniProt P41231); experiment: Calcium mobilization in 1321N1 astrocytoma cells expressing human P2Y2R; type: cell-based
T7 construct: expressed in transfected cells; host or cells: 1321N1 astrocytoma cells
Method: as §1

[5] = system: primary human chondrocytes; experiment: Cell viability of primary human chondrocytes, XTT assay; type: cell-based; conditions: cultured primary human chondrocytes, 0.1 mM
Method: FIG. 11: Analogs 20-28 are not toxic to primary human chondrocytes. Chondrocytes were incubated with analogs 20-28 at the indicated concentrations for 24 h, and then cell viability was assessed by the XTT assay;
FIG. 15: The effects of analogs 106-109 on primary human chondrocytes. (A) Analogs 106-109 inhibit NPPase activity in primary chondrocytes. NPPase activity was assayed by measuring the hydrolysis of the chromogenic substrate, pnp-TMP. […] Alkaline phosphatase activity was assayed by hydrolysis of p-nitrophenyl phosphate. (C) Analogs 106-109 are not toxic to cultured chondrocytes at a concentration of 0.1 mM. Cell viability was assessed by the XTT assay. Mean (columns) and SD (error bars) of triplicate cell culture experiments are shown.
A prerequisite for the application of inhibitors 20-28 as therapeutic agents is the lack of toxicity. For this purpose, primary human chondrocytes were cultured with analogs 20-28 at a high concentration of 1 mM for 24 h. Thereafter, cell viability was measured relative to untreated controls by the XTT assay and is represented on FIG. 11. No significant decrease in cell's viability was discernible at concentrations of up to 1 mM.

human CD39 = biological target: T8, human CD39 (Homo sapiens, UniProt P49961); experiment: Inhibition of human CD39, 0.5 μM PSB-170621A as substrate; type: biochemical; conditions: 0.5 μM PSB-170621A as a substrate; n = 3
T8 sequence (P49961 1-510): T1 sequence (P49961 1-510)

Human CD39 (NTPDase1) [6] = biological target: T1, Human CD39 (NTPDase1); conditions: literature value; cited from earlier work
[7] = 10 μM, inactive = no inhibition at 10 μM

T6 sequence (P47900 whole entry): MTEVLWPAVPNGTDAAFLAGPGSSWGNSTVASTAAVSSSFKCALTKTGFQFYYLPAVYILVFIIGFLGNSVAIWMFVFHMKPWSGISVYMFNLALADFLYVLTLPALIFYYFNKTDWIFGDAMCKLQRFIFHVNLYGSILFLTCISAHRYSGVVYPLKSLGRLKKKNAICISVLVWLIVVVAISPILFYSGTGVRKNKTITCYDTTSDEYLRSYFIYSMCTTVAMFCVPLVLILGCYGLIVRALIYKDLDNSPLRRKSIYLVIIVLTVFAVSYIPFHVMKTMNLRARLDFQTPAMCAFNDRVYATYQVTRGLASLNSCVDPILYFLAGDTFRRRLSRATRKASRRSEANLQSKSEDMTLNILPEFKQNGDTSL
Chain of P2Y6R (Q15077 whole entry): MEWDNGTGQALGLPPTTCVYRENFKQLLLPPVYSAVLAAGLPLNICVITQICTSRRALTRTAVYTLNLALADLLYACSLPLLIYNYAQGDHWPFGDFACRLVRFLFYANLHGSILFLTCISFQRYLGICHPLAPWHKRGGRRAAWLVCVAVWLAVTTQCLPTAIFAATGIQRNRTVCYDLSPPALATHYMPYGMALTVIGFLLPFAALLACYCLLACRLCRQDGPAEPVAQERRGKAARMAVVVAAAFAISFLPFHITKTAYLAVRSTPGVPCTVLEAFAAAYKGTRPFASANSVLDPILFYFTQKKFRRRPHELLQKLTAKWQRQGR
T7 sequence (P41231 whole entry): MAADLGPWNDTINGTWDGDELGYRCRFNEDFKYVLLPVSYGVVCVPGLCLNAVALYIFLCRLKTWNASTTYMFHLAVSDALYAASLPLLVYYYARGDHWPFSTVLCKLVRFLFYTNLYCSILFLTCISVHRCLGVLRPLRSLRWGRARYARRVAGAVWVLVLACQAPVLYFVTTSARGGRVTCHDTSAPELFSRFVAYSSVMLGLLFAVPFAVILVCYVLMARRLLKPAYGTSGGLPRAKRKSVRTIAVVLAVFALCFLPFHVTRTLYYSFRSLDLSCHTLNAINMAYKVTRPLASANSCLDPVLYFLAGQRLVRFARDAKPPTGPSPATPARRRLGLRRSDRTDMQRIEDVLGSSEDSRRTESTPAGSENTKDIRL
T5 sequence (P51582 whole entry): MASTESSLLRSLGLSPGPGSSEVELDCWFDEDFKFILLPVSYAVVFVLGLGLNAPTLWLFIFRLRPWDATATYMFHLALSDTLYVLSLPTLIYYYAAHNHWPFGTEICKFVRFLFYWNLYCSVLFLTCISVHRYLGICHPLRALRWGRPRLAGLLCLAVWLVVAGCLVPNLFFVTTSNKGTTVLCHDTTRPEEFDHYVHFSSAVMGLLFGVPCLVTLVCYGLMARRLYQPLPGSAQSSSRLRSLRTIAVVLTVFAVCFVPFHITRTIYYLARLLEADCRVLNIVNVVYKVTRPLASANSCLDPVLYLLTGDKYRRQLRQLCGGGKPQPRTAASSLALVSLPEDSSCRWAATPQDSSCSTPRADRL

Row | Structure (SMILES) | Ki (NPP1 [3]) | inhibition at 10 µM (NPP1 [3]) | inhibition at 10 µM (NPP1 [4]; ATP (100 μM) as a substrate) | % activation at 10 μM, P2Y4 (human P2Y4R) | % activation at 10 μM, P2Y1 (human P2Y1R) | % activation at 10 μM, P2Y6 (P2Y6R) | % activation at 10 μM, P2Y2 (human P2Y2R) | cell viability (XTT), toxicity [5] | other results
1 | Nc1ncnc2c1ncn2[C@@H]1O[C@H](COP(=O)(O)CP(=O)(O)O)[C@@H](O)[C@H]1O [AOPCP, reference compound] |  |  |  |  |  |  |  |  | % inhibition ± SD at 10 μM, Human CD39 (NTPDase1) (Human CD39 (NTPDase1) [1]; [7]): 12 ± 5%; Ki (Human CD39 (NTPDase1) [1]; read-out: Ki ± SD (μM), Human CD39 (NTPDase1)): > 10 µM; Ki (Human CD73): 0.197 µM; % inhibition ± SD at 10 μM, Human NPP3 (human NPP3; [7]): inactived; Ki (NPP1 [2]): 1.28 to 16.5 µM
2 | Nc1ncnc2c1ncn2COCCOP(=S)(S)OP(=O)(O)CP(=O)(O)O (centres unmarked) [compound 108] | 2160 nM | 65 ± 1% | 16 ± 3% | −2 ± 1% | 0 ± 1% | −8 ± 2% | 44 ± 9% |  | 
3 | Nc1ncnc2c1ncn2COCCOP(=S)(S)OP(=O)(O)OP(=O)(O)O (centres unmarked) [Analogue 107] |  |  |  |  |  |  |  | slightly increase cell survival | inhibition type (Lineweaver-Burk plot) (NPP1 [3]; vs p-Nph-5′-TMP, […]): non-competitive inhibition; inhibition type (Lineweaver-Burk plot) (NPP1 [4]; vs ATP, α value of ~1): non-competitive inhibition
4 | Nc1ncnc2c1ncn2COCCOP(=S)(S)OP(=O)(O)OP(=O)(O)O (centres unmarked) [compound 107] | 1980 nM | 74 ± 1% | 66 ± 1% | −2 ± 2% | −1 ± 1% | −5 ± 3% | 39 ± 13% |  | Ki (NPP1 [4]; ATP (100 μM) as a substrate, read-out: Ki (μM ± SD), human NPP1 (converted)): 0.334 µM; % inhibition ± SEM, human NPP3 (human NPP3; n = 3): 17 ± 1%; % inhibition ± SEM, human CD39 (human CD39): 28 ± 1%
5 | Nc1ncnc2c1ncn2COCCOP(=S)(S)OP(=O)(O)O (centres unmarked) [Analogue 106] |  |  |  |  |  |  |  | slightly increase cell survival | 
6 | Nc1ncnc2c1ncn2COCCOP(=S)(S)OP(=O)(O)C(Cl)(Cl)P(=O)(O)O (centres unmarked) [Analogue 109] |  |  |  |  |  |  |  | slightly increase cell survival | 
7 | Nc1ncnc2c1ncn2COCCOP(=S)(S)OP(=O)(O)C(Cl)(Cl)P(=O)(O)O (centres unmarked) [compound 109] | 698 nM | 85 ± 2% | 37 ± 1% | 0 ± 2% | −2 ± 1% | 2 ± 4% | 21 ± 5% |  | 
8 | Cc1ccc(C(=O)Nc2ccc(S(=O)(=O)O)c3cc(S(=O)(=O)O)cc(S(=O)(=O)O)c23)cc1NC(=O)c1cccc(NC(=O)Nc2cccc(C(=O)Nc3cc(C(=O)Nc4ccc(S(=O)(=O)O)c5cc(S(=O)(=O)O)cc(S(=O)(=O)O)c45)ccc3C)c2)c1 [Suramin] |  |  |  |  |  |  |  |  | Ki (Human CD39 (NTPDase1) [6]): 300 µM
